According to patent publication US7064139B2, “Method for treating retroviral infections” (Uniroyal Chemical Company, Inc., priority 2001, dated 2006):
Values after ≈ are worked out from the molar mass of the structure shown. Like-named read-outs stand apart in the source and are kept apart here.

How the values were obtained:
HIV-1 (IIIB) = test: microbe, parasite or virus in culture; format: cell-based; settings: for EC50 (ug/ml) HIV-1 / EC50: CEM cells, syncytium formation, day four post infection; for HIV-1 % Protection: protection of CEM cells against virus-induced cytopathicity at the concentration in the previous column; for EC50: Human immunodeficiency virus 1, IIIB, CCRF-CEM, read-out: EC50 (ug/ml) HIV-1
Excerpt: (§1) The cell type used to determine activity of the compounds of the invention herein, i.e., the test compounds, against HIV was human T-lymphoblast (CEM) cells obtained from the American Tissue Cell Culture Collection (Rockville, Md.). HIV-1 (IIIB) was originally obtained from the culture of persistently HIV-1 infected H9 cells and was provided by R. C. Gallo and M. Popovic (National Cancer Institute, National Institutes of Health, Bethesda, Md.). HIV-2 (ROD) was originally obtained from L. M. Montagnier (Pasteur Institute, Paris, France).
(§2) To determine the antiviral activity of the test compounds, CEM cells were suspended at a cell density of approximately 300,000 cells per ml of culture medium and infected with approximately 100 CCID50 (100 CCID50 being the 50% cell culture infective dose) of HIV-1 (IIIB) or HIV-2 (ROD)). Then 100 μl of the infected cell suspensions was added to 200 μl micro titer plate wells containing 100 μl of appropriate serial (5-fold) dilutions of the test compounds. The inhibitory effect of the test compounds on HIV-1 or HIV-2 syncytium formation in CEM cells was examined microscopically on day four post infection.
(§3) In these cases, the percent protection of the cells against virus-induced cytopathicity by the test compounds at the indicated compound concentration in the previous column is given.

HIV-2 (ROD) = test: Inhibition of HIV-2 syncytium formation in CEM cells; format: cell-based; settings: for HIV-2 % Protection: protection of CEM cells against virus-induced cytopathicity at the concentration in the previous column; for EC50: Human immunodeficiency virus 2, CCRF-CEM, read-out: EC50 (ug/ml) HIV-2
Excerpt: as §1, §2, §3

Davis strain CMV = test: Reduction of CMV-induced cytopathicity in HEL cells; format: cell-based, human cytomegalovirus (HCMV); settings: for Antiviral % Inhibition Davis strain CMV: estimate of percent protection at the concentration in the previous column; for EC50: read-out: Antiviral EC50 (ug/ml) Davis strain CMV
Procedure: Confluent HEL cells grown in […] microtiter plates were inoculated with CMV at an input of 100 PFU (plaque forming units) per well. After a one to two hour incubation period, residual virus was removed and the infected cells were further incubated with MEM (Minimal Essential Medium) (supplemented with 2% inactivated Fetal Calf Serum (FCS), […], and 0.3% sodium bicarbonate) containing varying concentrations of the test compounds. Antiviral activity was expressed as EC50 (50% effective concentration), or test compound concentration required to reduce virus-induced cytopathicity after seven days by 50% compared to the untreated control.
In some cases, the compounds had considerable cytotoxicity against HEL cells, which made determination of the EC50 difficult. In these cases, an estimate of the percent protection at the compound concentration indicated in the previous columns is given.

[1] = CEM cells, syncytium formation, day four post infection
[2] = HEL cells, virus-induced cytopathicity after seven days

SMILES | EC50 (ug/ml) HIV-1 (HIV-1 (IIIB)) | EC50 (ug/ml) HIV-2 (HIV-2 (ROD); [1]) | Antiviral % Inhibition Davis strain CMV (Davis strain CMV; HEL cells) | Antiviral EC50 (ug/ml) Davis strain CMV (Davis strain CMV; [2]) | HIV-2 % Protection (HIV-2 (ROD)) | HIV-1 % Protection (HIV-1 (IIIB)) | EC50 (HIV-1 (IIIB)) | EC50 (HIV-2 (ROD); [1]) | EC50 (Davis strain CMV; Human betaherpesvirus 5, 168 h, HEL cells, virus-induced cytopathicity after seven days) | EC50 (HIV-2 (ROD)) | EC50 (Davis strain CMV; Human betaherpesvirus 5, HEL, 168 h)
Cc1ccc(C)c(CS(=O)(=O)c2ccccn2)c1 [Compound 150] | 3.25 µg/mL (≈ 12.4 µM) | 20.0 µg/mL (≈ 76.5 µM) | 20.0% | >50 µg/mL |  |  |  |  |  |  | 
Cc1ccc[n+]([O-])c1S(=O)(=O)Cc1ccccc1 [Compound 80] | 15.00 µg/mL (≈ 57 µM) | >20.0 µg/mL | 0.0% | >20 µg/mL | 0.0% |  |  |  |  |  | 
COc1ccc(C(c2ccccc2)S(=O)(=O)c2cccc[n+]2[O-])cc1OC (stereo not drawn) [Compound 61] | >4 µg/mL | >4.0 µg/mL |  | 14.0 µg/mL | 6.0% | 0.0% |  |  |  |  | 
O=S(=O)(Cc1cccs1)c1cccc[n+]1[O-] [Compound 8] | >20 µg/mL | >20 µg/mL |  | 11.0 µg/mL | 0.0% | 0.0% |  |  |  |  | 
O=S(=O)(c1ccc(Cl)c[n+]1[O-])C(Cl)c1ccccc1 (stereo not drawn) [Compound 114, 2-(Phenylchloromethylsulfonyl)-5-chloropyridine N-oxide] |  |  | 20.0% |  | 0.0% | 0.0% | > 0.8 µg/mL | > 0.8 µg/mL | > 20 µg/mL |  | 
Cc1ccc(C[S+]([O-])c2cccc[n+]2[O-])cc1 (stereo not drawn) [Compound 91] | >4 µg/mL | >4.0 µg/mL |  | 34.5 µg/mL | 0.0% | 0.0% |  |  |  |  | 
O=S(=O)(Cc1c(Cl)c(Cl)c(Cl)c(Cl)c1Cl)c1cccc[n+]1[O-] [Compound 32, 2-(Pentachlorobenzylsulfonyl)-pyridine-N-oxide] |  |  |  |  |  |  | 0.63 µg/mL (≈ 1.49 µM) |  |  | 1 µg/mL (≈ 2.37 µM) | 14 µg/mL (≈ 33.2 µM)
O=S(=O)(c1cccc[n+]1[O-])C(Cl)c1ccccc1 (stereo not drawn) [Compound 105, 2-(alpha-phenyl-alpha-chloromethylsulfonyl)pyridine-N-oxide] | 16.00 µg/mL (≈ 56.4 µM) | 2.5 µg/mL (≈ 8.81 µM) |  | 23.0 µg/mL |  |  |  |  |  |  | 
CCOc1ccccc1CS(=O)(=O)c1cccc[n+]1[O-] [Compound 48] | 9.50 µg/mL (≈ 32.4 µM) | 16.0 µg/mL (≈ 54.5 µM) | 20.0% | >20 µg/mL |  |  |  |  |  |  | 
Cc1ccc(CS(=O)(=O)c2c(C)ccc[n+]2[O-])c(C)c1 [Compound 83] | 6.00 µg/mL (≈ 20.6 µM) | ≧20 ug/ml |  | 12.0 µg/mL | 37.5% |  |  |  |  |  | 
Cc1cc([N+](=O)[O-])ccc1CS(=O)(=O)c1c(C)ccc[n+]1[O-] [Compound 118] | >4 µg/mL | >4.0 µg/mL | 10.0% | >5 µg/mL | 0.0% |  |  |  |  |  | 
CCC(C)(C)c1ccc(CS(=O)(=O)c2cccc[n+]2[O-])cc1 [Compound 40, 2-(((4-(1,1-dimethyl)propyl)phenyl)methylsulfonyl)pyridine-N-oxide] | 3.10 µg/mL (≈ 9.7 µM) | 3.4 µg/mL (≈ 10.6 µM) |  | 1.5 µg/mL |  |  |  |  |  |  | 
[O-][n+]1cccc(Cl)c1[S+]([O-])Cc1ccccc1 (stereo not drawn) [Compound 136] | 1.50 µg/mL (≈ 5.6 µM) | >4.0 µg/mL |  | 4.7 µg/mL | 0.0% |  |  |  |  |  | 
Cc1cc[n+]([O-])c(S(=O)(=O)Cc2ccc(Cl)cc2)c1 [Compound 129] | >14 µg/mL | 11.0 µg/mL (≈ 36.9 µM) | 20.0% | >5 µg/mL |  |  |  |  |  |  | 
COc1ccc(Br)c(CS(=O)(=O)c2cccc[n+]2[O-])c1 [Compound 31] | 4.00 µg/mL (≈ 11.2 µM) | 9.0 µg/mL (≈ 25.1 µM) |  | 10.0 µg/mL |  |  |  |  |  |  | 
O=S(=O)(Cc1ccc(CS(=O)(=O)c2cccc[n+]2[O-])cc1)c1cccc[n+]1[O-] [Compound 23] | ≧20 ug/ml | ≧20 ug/ml | 20.0% | >20 µg/mL | 37.5% | 37.5% |  |  |  |  | 
